We go through 15 compounds from patent publication US12441733B2, “Substituted 2,4-dioxotetrahydropyrimidines as intermediates in the synthesis of bruton's tyrosine kinase inhibitors” (Novartis AG, priority 2018, dated 2025).

Each structure is given as a SMILES string.

In the assay the target is T1, BTK-GFP (Homo sapiens, UniProt Q06187+Q96SW2).
T1 construct: expressed in transfected cells; host or cells: HEK293A (Invitrogen R70507), lentiviral transduction with pLenti6-BTK-GFP-Ires-RFP, blasticidin selection
As to the kind of experiment: BTK-GFP protein abundance flow cytometry assay in HEK293A cells. It is filed as cell-based. The settings on record: HEK293A BTK-GFP-iresRFP cells, 24 h; for DC50: GFP signal by flow cytometry, concentration at which 50% maximal degradation was observed; for BTK deg Amax: % protein remaining at the concentration at which maximum degradation is seen. A digest of the protocol: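 HEK293A cells stably expressing bicistronic BTK-GFP-IRES-RFP (C-terminal GFP tag) via lentiviral vector. Degradation read by flow cytometry as loss of GFP signal after degrader treatment. DC50 is concentration giving 50% maximal degradation; Amax is % protein remaining at maximal degradation.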

T1 sequence (Q06187 whole entry): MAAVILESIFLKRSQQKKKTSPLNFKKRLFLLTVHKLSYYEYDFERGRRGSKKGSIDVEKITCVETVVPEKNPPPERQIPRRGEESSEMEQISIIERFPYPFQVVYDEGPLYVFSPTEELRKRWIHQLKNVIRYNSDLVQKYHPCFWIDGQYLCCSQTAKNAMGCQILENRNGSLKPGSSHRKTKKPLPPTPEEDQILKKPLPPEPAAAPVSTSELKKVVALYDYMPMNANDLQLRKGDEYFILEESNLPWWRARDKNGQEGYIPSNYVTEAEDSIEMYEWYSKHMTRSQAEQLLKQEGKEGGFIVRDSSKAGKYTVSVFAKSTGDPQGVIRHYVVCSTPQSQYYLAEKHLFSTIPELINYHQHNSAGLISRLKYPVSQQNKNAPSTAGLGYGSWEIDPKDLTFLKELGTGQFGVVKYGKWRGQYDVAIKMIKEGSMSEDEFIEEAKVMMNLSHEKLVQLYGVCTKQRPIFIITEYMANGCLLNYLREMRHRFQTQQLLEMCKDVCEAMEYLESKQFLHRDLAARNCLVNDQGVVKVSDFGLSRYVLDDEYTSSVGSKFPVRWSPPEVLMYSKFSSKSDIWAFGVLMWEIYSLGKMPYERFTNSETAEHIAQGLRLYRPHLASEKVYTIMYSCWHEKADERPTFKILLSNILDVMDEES
T1 sequence (Q96SW2 whole entry): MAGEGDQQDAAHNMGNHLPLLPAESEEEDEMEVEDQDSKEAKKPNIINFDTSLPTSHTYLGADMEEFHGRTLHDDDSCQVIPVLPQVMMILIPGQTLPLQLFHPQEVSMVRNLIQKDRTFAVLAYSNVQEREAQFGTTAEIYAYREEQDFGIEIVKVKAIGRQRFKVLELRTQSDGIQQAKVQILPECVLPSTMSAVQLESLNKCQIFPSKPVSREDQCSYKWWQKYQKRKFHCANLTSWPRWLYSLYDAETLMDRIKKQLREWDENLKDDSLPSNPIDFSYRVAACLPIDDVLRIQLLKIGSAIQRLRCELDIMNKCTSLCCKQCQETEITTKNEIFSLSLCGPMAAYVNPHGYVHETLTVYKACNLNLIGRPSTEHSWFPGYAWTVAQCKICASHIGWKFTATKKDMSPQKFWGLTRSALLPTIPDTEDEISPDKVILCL
T1 sequence (Q16531 whole entry partner): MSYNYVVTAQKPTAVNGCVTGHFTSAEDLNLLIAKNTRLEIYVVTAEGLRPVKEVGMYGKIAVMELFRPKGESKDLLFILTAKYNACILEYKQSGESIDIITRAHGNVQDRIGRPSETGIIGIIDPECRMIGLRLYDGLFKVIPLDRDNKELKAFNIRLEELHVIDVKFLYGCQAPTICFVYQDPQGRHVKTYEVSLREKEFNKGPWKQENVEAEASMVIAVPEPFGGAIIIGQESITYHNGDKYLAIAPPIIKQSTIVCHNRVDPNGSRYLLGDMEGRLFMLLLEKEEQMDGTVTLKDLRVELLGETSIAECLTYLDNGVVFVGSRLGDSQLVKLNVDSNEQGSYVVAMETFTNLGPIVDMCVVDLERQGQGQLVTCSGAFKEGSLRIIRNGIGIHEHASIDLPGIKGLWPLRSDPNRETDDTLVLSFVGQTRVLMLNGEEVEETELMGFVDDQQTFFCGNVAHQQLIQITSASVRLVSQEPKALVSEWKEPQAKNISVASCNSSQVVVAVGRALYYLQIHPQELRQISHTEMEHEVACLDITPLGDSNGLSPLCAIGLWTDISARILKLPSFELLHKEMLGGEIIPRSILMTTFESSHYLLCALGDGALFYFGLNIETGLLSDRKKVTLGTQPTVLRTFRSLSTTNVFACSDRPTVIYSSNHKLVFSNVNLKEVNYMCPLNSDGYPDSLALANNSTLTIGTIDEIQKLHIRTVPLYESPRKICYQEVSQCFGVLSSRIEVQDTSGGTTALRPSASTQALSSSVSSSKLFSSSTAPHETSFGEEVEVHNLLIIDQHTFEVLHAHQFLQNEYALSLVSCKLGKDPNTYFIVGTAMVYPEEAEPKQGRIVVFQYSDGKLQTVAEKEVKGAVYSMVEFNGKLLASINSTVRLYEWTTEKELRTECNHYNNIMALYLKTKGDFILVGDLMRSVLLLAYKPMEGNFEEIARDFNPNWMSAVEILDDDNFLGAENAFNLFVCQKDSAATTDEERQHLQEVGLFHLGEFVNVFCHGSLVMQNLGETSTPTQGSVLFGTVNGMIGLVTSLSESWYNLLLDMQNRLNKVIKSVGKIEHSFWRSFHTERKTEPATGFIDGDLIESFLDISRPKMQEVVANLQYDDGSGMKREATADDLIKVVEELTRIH

For `COc1ccc(C(=O)N2CCC3(CCN(Cc4ccc(-c5cc6c(-c7cc(F)cc(NC(=O)c8ccc(C(C)(C)O)cc8F)c7C)ncnc6[nH]5)cc4)CC3)CC2)cc1N1CCC(=O)NC1=O` [Compound 9, N-(3-(6-(4-((9-(3-(2,4-Dioxotetrahydropyrimidin-1(2H)-yl)-4-methoxybenzoyl)-3,9-diazaspiro[5.5]undecan-3-yl)methyl)phenyl)-7H-pyrrolo[2.3-d]pyrimidin-4-yl)-5-fluoro-2-methylphenyl)-2-fluoro-4-(2-hydroxypropan-2-yl)benzamide], the DC50 came out at 2.1 nM and the “BTK deg Amax” value came out at 4.5%.

For `Cc1c(NC(=O)c2ccc(C(C)(C)O)cc2F)cc(F)cc1-c1ncnc2[nH]c(-c3ccc(CN4CCC5(CC4)CCN(C(=O)c4ccc(F)c(N6CCC(=O)NC6=O)c4)CC5)cc3)cc12` [Compound 14, N-(3-(6-(4-((9-(3-(2,4-Dioxotetrahydropyrimidin-1(2H)-yl)-4-fluorobenzoyl)-3,9-diazaspiro[5.5]undecan-3-yl)methyl)phenyl)-7H-pyrrolo[2.3-d]pyrimidin-4-yl)-5-fluoro-2-methylphenyl)-2-fluoro-4-(2-hydroxypropan-2-yl)benzamide], it took 3.8 nM to reach half-maximal degradation (DC50) and the “BTK deg Amax” value is recorded as 11.7%.

Consider `Cc1c(NC(=O)c2ccc(C(C)(C)O)cc2F)cc(F)cc1-c1ncnc2[nH]c(-c3ccc(CCN4CCC5(CC4)CCN(C(=O)c4cccc(N6CCC(=O)NC6=O)c4)CC5)cc3)cc12` [Compound 12, N-(3-(6-(4-(2-(9-(3-(2,4-Dioxotetrahydropyrimidin-1(2H)-yl)benzoyl)-3,9-diazaspiro[5,5]undecan-3-yl)ethyl)phenyl)-7H-pyrrolo[2,3-d]pyrimidin-4-yl)-5-fluoro-2-methylphenyl)-2-fluoro-4-(2-hydroxypropan-2-yl)benzamide], for which half-maximal degradation (DC50) was put at 29.9 nM and the “BTK deg Amax” value came to 40.6%.

Take `COc1ccc(C(=O)NCCN2CCC3(CC2)CCN(Cc2ccc(-c4cc5c(-c6cc(F)cc(NC(=O)c7ccc(C(C)(C)O)cc7F)c6C)ncnc5[nH]4)cc2)CC3)cc1N1CCC(=O)NC1=O` [Compound 44, N-(3-(6-(4-((9-(2-(3-(2,4-dioxotetrahydropyrimidin-1(2H)-yl)-4-methoxybenzamido)ethyl)-3,9-diazaspiro[5.5]undecan-3-yl)methyl)phenyl)-7H-pyrrolo[2,3-d]pyrimidin-4-yl)-5-fluoro-2-methylphenyl)-2-fluoro-4-(2-hydroxypropan-2-yl)benzamide]: half-maximal degradation (DC50) was put at 235 nM and the “BTK deg Amax” value was 48.4%.

For the compound `COc1ccc(C(=O)N2CCC3(CCN(CCc4ccc(-c5cc6c(-c7cc(F)cc(NC(=O)c8ccc(C(C)(C)O)cc8F)c7C)ncnc6[nH]5)cc4)CC3)CC2)cc1N1CCC(=O)NC1=O` [Compound 31, N-(3-(6-(4-(2-(9-(3-(2,4-Dioxotetrahydropyrimidin-1(2H)-yl)-4-methoxybenzoyl)-3,9-diazaspiro[5.5]undecan-3-yl)ethyl)phenyl)-7H-pyrrolo[2,3-d]pyrimidin-4-yl)-5-fluoro-2-methylphenyl)-2-fluoro-4-(2-hydroxypropan-2-yl)benzamide], half-maximal degradation (DC50) was put at 2.5 nM and the “BTK deg Amax” value came to 3.4%.

Turning to `CCOc1ccc(C(=O)N2CCC3(CCN(Cc4ccc(-c5cc6c(-c7cc(F)cc(NC(=O)c8ccc(C(C)(C)O)cc8F)c7C)ncnc6[nH]5)cc4)CC3)CC2)cc1N1CCC(=O)NC1=O` [Compound 4, N-(3-(6-(4-((9-(3-(2,4-Dioxotetrahydropyrimidin-1(2H)-yl)-4-ethoxybenzoyl)-3,9-diazaspiro[5.5]undecan-3-yl)methyl)phenyl)-7H-pyrrolo[2,3-d]pyrimidin-4-yl)-5-fluoro-2-methylphenyl)-2-fluoro-4-(2-hydroxypropan-2-yl)benzamide], the DC50 came out at 3.7 nM and the “BTK deg Amax” value is 7.8%.

For the compound `Cc1c(NC(=O)c2ccc(C(C)(C)O)cc2F)cc(F)cc1-c1ncnc2[nH]c(-c3ccc(CCN4CCC5(CC4)CCN(C(=O)c4ccc(F)c(N6CCC(=O)NC6=O)c4)CC5)cc3)cc12` [Compound 47, N-(3-(6-(4-(2-(9-(3-(2,4-dioxotetrahydropyrimidin-1(2H)-yl)-4-fluorobenzoyl)-3,9-diazaspiro[5.5]undecan-3-yl)ethyl)phenyl)-7H-pyrrolo[2,3-d]pyrimidin-4-yl)-5-fluoro-2-methylphenyl)-2-fluoro-4-(2-hydroxypropan-2-yl)benzamide], it took 2.2 nM to reach half-maximal degradation (DC50) and the “BTK deg Amax” value was 6.7%.

In the case of `COc1ccc(C(=O)N2CCC3(CC2)CCN(C(C)(C)Cc2ccc(-c4cc5c(-c6cc(F)cc(NC(=O)c7ccc(C(C)(C)O)cc7F)c6C)ncnc5[nH]4)cc2)CC3)cc1N1CCC(=O)NC1=O` [Compound 20, N-(3-(6-(4-(2-(9-(3-(2,4-Dioxotetrahydropyrimidin-1(2H)-yl)-4-methoxybenzoyl)-3,9-diazaspiro[5.5]undecan-3-yl)-2-methylpropyl)phenyl)-7H-pyrrolo[2,3-d]pyrimidin-4-yl)-5-fluoro-2-methylphenyl)-2-fluoro-4-(2-hydroxypropan-2-yl)benzamide], half-maximal degradation (DC50) was put at 2 nM and the “BTK deg Amax” value is 1.1%.

Take `COc1ccc(C(=O)N2CCC(OC3CCN(CCc4ccc(-c5cc6c(-c7cc(F)cc(NC(=O)c8ccc(C(C)(C)O)cc8F)c7C)ncnc6[nH]5)cc4)CC3)CC2)cc1N1CCC(=O)NC1=O` [Compound 34, N-(3-(6-(4-(2-(4-((1-(3-(2,4-Dioxotetrahydropyrimidin-1(2H)-yl)-4-methoxybenzoyl)piperidin-4-yl)oxyl)piperidin-1-yl)ethyl)phenyl)-7H-pyrrolo[2,3-d]pyrimidin-4-yl)-5-fluoro-2-methylphenyl)-2-fluoro-4-(2-hydroxypropan-2-yl)benzamide]: half-maximal degradation (DC50) was put at 3.9 nM and the “BTK deg Amax” value is 1.7%.

As for `Cc1cc(F)c(C(=O)NCCCCCNCc2ccc(-c3cc4c(-c5cc(F)cc(NC(=O)c6ccc(C(C)(C)O)cc6F)c5C)ncnc4[nH]3)cc2)cc1N1CCC(=O)NC1=O` [Compound 29, 5-(2,4-Dioxotetrahydropyrimidin-1(2H)-yl)-2-fluoro-N—(S-((4-(4-(5-fluoro-3-(2-fluoro-4-(2-hydroxypropan-2-yl)benzamido)-2-methylphenyl)-7H-pyrrolo[2,3-d]pyrimidin-6-yl)benzyl)amino)pentyl)-4-methylbenzamide], it took 19.9 nM to reach half-maximal degradation (DC50) and the “BTK deg Amax” value was determined as 3.1%.

Consider `Cc1ccc(C(=O)N(C)CCCCCNCc2ccc(-c3cc4c(-c5cc(F)cc(NC(=O)c6ccc(C(C)(C)O)cc6F)c5C)ncnc4[nH]3)cc2)cc1N1CCC(=O)NC1=O` [Compound 30, 3-(2,4-Dioxotetrahydropyrimidin-1(2H)-yl)-N-(5-((4-(4-(5-fluoro-3-(2-fluoro-4-(2-hydroxypropan-2-yl)benzamido)-2-methylphenyl)-7H-pyrrolo[2,3-d]pyrimidin-6-yl)benzyl)amino)pentyl)-N,4-dimethylbenzamide], for which the DC50 came to 47.1 nM and the “BTK deg Amax” value amounted to 5.4%.

As to `COc1ccc(C(=O)NCCN2CCOC3(CCN(Cc4ccc(-c5cc6c(-c7cc(F)cc(NC(=O)c8ccc(C(C)(C)O)cc8F)c7C)ncnc6[nH]5)cc4)CC3)C2)cc1N1CCC(=O)NC1=O` [Compound 39, N-(3-(6-(4-((4-(2-(3-(2,4-dioxotetrahydropyrimidin-1(2H)-yl)-4-methoxybenzamido)ethyl)-1-oxa-4,9-diazaspiro[5.5]undecan-9-yl)methyl)phenyl)-7H-pyrrolo[2,3-d]pyrimidin-4-yl)-5-fluoro-2-methylphenyl)-2-fluoro-4-(2-hydroxypropan-2-yl)benzamide], it took 149 nM to reach half-maximal degradation (DC50) and the “BTK deg Amax” value stood at 12.7%.

Take `COc1ccc(C(=O)N2CCC(OC3CCN(Cc4ccc(-c5cc6c(-c7cc(F)cc(NC(=O)c8ccc(C(C)(C)O)cc8F)c7C)ncnc6[nH]5)cc4)CC3)CC2)cc1N1CCC(=O)NC1=O` [Compound 8, N-(3-(6-(4-((4-((1-(3-(2,4-dioxotetrahydropyrimidin-1(2H)-yl)-4-methoxybenzoyl)piperidin-4-yl)oxyl)piperidin-1-yl)methyl)phenyl)-7H-pyrrolo[2,3-d]pyrimidin-4-yl)-5-fluoro-2-methylphenyl)-2-fluoro-4-(2-hydroxypropan-2-yl)benzamide]: the DC50 was determined as 2.6 nM and the “BTK deg Amax” value was 5.5%.

Turning to `COc1ccc(C(=O)N2CCC(CN3CCC(Oc4ccc(-c5cc6c(-c7cc(F)cc(NC(=O)c8ccc(C(C)(C)O)cc8F)c7C)ncnc6[nH]5)cc4)CC3)CC2)cc1N1CCC(=O)NC1=O` [Compound 19, N-(3-(6-(4-((1-((1-(3-(2,4-Dioxotetrahydropyrimidin-1(2H)-yl)-4-methoxybenzoyl)piperidin-4-yl)methyl)piperidin-4-yl)oxyl)phenyl)-7H-pyrrolo[2,3-d]pyrimidin-4-yl)-5-fluoro-2-methylphenyl)-2-fluoro-4-(2-hydroxypropan-2-yl)benzamide], the DC50 came to 0.6 nM and the “BTK deg Amax” value is 2.7%.

On to `COc1ccc(C(=O)N2CCN(C(=O)N3CCN(Cc4ccc(-c5cc6c(-c7cc(F)cc(NC(=O)c8ccc(C(C)(C)O)cc8F)c7C)ncnc6[nH]5)cc4)CC3)CC2)cc1N1CCC(=O)NC1=O` [Compound 22, N-(3-(6-(4-((4-(4-(3-(2,4-Dioxotetrahydropyrimidin-1(2H)-yl)-4-methoxybenzoyl)piperazine-1-carbonyl)piperazin-1-yl)methyl)phenyl)-7H-pyrrolo[2,3-d]pyrimidin-4-yl)-5-fluoro-2-methylphenyl)-2-fluoro-4-(2-hydroxypropan-2-yl)benzamide], for which it took 23.7 nM to reach half-maximal degradation (DC50) and the “BTK deg Amax” value came out at 6.5%.
